Measured values as given in patent US11180474B2 (BRISTOL-MYERS SQUIBB COMPANY, priority 2016, dated 2021).

What was measured:
[1] = target: T1, human TLR9 (Homo sapiens, UniProt Q9NR96); assay: TLR9 inhibition reporter assay (HEK-Blue cells, SEAP reporter, ODN2006 stimulation); assay type: cell-based; details: HEK-Blue cells overexpressing human TLR9, ODN2006 5 nM
T1 construct: host or cells: HEK-Blue cells
T1 sequence (Q9NR96 26-1032): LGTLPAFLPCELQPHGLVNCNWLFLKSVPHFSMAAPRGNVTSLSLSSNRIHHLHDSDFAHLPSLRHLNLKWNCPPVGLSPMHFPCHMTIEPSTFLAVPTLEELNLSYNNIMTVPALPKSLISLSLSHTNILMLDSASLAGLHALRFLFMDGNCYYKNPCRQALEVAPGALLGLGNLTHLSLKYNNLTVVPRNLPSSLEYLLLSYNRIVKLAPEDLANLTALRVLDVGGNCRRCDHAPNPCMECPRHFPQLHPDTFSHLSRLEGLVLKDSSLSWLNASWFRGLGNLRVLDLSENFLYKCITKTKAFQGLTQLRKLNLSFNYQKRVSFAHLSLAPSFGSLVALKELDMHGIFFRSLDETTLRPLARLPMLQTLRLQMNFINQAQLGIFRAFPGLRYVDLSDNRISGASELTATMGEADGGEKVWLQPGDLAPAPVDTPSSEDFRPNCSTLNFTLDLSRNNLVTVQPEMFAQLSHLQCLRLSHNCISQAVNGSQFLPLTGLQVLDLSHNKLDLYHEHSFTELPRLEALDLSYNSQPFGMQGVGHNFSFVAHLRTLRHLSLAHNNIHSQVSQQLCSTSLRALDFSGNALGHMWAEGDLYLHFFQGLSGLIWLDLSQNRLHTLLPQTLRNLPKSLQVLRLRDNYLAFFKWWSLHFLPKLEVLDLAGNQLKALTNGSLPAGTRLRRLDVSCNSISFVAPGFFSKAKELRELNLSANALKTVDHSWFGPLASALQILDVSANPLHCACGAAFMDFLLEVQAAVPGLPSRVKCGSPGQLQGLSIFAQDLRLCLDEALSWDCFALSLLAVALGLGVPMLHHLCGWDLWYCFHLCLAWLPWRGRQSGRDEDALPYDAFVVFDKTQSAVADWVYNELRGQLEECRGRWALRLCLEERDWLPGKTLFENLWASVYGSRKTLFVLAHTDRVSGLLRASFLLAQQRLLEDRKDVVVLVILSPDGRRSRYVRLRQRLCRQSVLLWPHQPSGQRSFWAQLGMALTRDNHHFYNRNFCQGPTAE
Summary of the method: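 HEK-Blue cells overexpressing human TLR7, TLR8 or TLR9 carry a SEAP reporter driven by NF-κB/AP-1 sites. Compounds (0.05 nM–50 μM) were preincubated 30 min at room temperature, then cells were stimulated with gardiquimod 7.5 μM (TLR7), R848 15.9 μM (TLR8) or ODN2006 5 nM (TLR9) for 22 h at 37 °C.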

[2] = target: T2, human TLR8 (Homo sapiens, UniProt Q9NR97); assay: TLR8 inhibition reporter assay (HEK-Blue cells, SEAP reporter, R848 stimulation); assay type: cell-based; details: HEK-Blue cells overexpressing human TLR8, R848 15.9 μM
T2 construct: host or cells: HEK-Blue cells
T2 sequence (Q9NR97 27-1041): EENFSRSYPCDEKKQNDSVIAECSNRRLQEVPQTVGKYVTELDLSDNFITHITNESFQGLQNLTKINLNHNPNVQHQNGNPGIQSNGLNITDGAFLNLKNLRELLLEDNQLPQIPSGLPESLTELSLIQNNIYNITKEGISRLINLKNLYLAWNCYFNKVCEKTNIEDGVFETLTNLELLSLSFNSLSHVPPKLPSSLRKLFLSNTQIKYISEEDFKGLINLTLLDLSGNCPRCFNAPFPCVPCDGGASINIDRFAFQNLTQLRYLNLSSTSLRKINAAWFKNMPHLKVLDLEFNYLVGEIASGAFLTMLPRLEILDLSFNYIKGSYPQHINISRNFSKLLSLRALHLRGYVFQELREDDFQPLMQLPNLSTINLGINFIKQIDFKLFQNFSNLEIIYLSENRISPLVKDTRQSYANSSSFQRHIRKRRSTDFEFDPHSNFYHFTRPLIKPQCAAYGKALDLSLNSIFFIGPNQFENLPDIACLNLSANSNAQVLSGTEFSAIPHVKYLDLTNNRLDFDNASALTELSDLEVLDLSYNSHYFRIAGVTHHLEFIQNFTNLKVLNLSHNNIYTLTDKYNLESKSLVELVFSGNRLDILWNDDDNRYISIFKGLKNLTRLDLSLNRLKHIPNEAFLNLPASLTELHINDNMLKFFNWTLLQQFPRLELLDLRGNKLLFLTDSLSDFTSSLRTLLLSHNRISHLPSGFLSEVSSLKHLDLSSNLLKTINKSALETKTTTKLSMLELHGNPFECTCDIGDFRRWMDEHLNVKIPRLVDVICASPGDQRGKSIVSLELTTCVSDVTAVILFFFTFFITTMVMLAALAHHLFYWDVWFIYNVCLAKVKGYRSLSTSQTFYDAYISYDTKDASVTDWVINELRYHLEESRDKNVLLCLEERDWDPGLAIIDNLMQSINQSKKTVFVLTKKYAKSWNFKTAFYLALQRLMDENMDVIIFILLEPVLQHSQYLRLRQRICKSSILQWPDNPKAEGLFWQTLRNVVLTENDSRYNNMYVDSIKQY
Summary of the method: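 SEAP readout via HEK-Blue Detection medium after 22 h at 37 °C, 5% CO2 defines inhibition, normalized between agonist-plus-DMSO wells and a reference inhibitor. Compound dose range 0.05 nM–50 μM; TLR7 cells at 15,000/well (gardiquimod), TLR8 at 20,000/well (R848).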

Structure (SMILES)	IC50 [1] [nM]	IC50 [2] [nM]
CCc1c(-c2ccc(OC)c(OC)c2)[nH]c2ccc(C3CCN(C4CCN(Cc5cnc(C)[nH]5)CC4)CC3)cc12 [Example 153, 2-(3,4-dimethoxyphenyl)-3-ethyl-5-(1′-((2-methyl-1H-imidazol-5-yl)methyl)-[1,4′-bipiperidin]-4-yl)-1H-indole]	547	364
CNCCN1CCC(c2cc3c(C(C)C)c(-c4ccc(OC)c(OC)c4)[nH]c3cc2C)CC1 [Example 207, 2-(4-(2-(3,4-dimethoxyphenyl)-3-isopropyl-6-methyl-1H-indol-5-yl)piperidin-1-yl)-N-methylethan-1-amine]	2290	46900
CCCc1c(-c2ccc(OC)c(OC)c2)[nH]c2ccc(C3CCN(C4CCN(CC(C)C)CC4)CC3)cc12 [Example 121, 2-(3,4-dimethoxyphenyl)-5-(1′-isobutyl-[1,4′-bipiperidin]-4-yl)-3-propyl-1H-indole-di-trifluoroacetic acid]	378	65
COc1ccc(-c2[nH]c3cc(C)c(C4CCNCC4)cc3c2C(C)C)cc1OC [Example 205, 2-(3,4-dimethoxyphenyl)-3-isopropyl-6-methyl-5-(piperidin-4-yl)-1H-indole]	966	6870
COc1ccc(-c2[nH]c3ccc(C4CCN(C(=O)CNC56CC7CC(CC(O)(C7)C5)C6)CC4)cc3c2C(C)C)cc1OC [Example 218, 1-(4-(2-(3,4-dimethoxyphenyl)-3-isopropyl-1H-indol-5-yl)piperidin-1-yl)-2-(((1r,3s,5R,7S)-3-hydroxyadamantan-1-yl)amino)ethan-1-one]	1280	54
CCc1c(-c2ccc(OC)c(OC)c2)[nH]c2ccc(C3CCN(C(C)=O)CC3)cc12 [Example 185, 1-(4-(2-(3,4-dimethoxyphenyl)-3-ethyl-1H-indol-5-yl)piperidin-1-yl)ethan-1-one]	32400	837
CCc1c(-c2ccc(OC)c(OC)c2)[nH]c2ccc(C3CCN(C(=O)c4ccncc4)CC3)cc12 [Example 183, (4-(2-(3,4-dimethoxyphenyl)-3-ethyl-1H-indol-5-yl)piperidin-1-yl)(pyridin-4-yl) methanone]	10200	838
CCc1c(-c2ccc(OC)c(OC)c2)[nH]c2ccc(C3CCN(C4CCN(Cc5sccc5C)CC4)CC3)cc12 [Example 139, 2-(3,4-dimethoxyphenyl)-3-ethyl-5-(1′-((3-methylthiophen-2-yl)methyl)-[1,4′-bipiperidin]-4-yl)-1H-indole]	444	206
CCc1c(-c2ccc(OC)c(OC)c2)[nH]c2ccc(C3CCN(CC(C)C(F)(F)F)CC3)cc12 (centres unmarked) [Example 180, 2-(3,4-dimethoxyphenyl)-3-ethyl-5-(1-(3,3,3-trifluoro-2-methylpropyl)piperidin-4-yl)-1H-indole]	≥ 50000	776
COc1ccc(-c2[nH]c3ccc(C4CCN(C(=O)CN5CCC(N6CCCCC6)CC5)CC4)cc3c2C(C)C)cc1OC [Example 211, 2-([1,4′-bipiperidin]-1′-yl)-1-(4-(2-(3,4-dimethoxyphenyl)-3-isopropyl-1H-indol-5-yl)piperidin-1-yl)ethan-1-one]	990	25
CCN(CC)C(=O)CCN(C)CC(=O)N1CCC(c2ccc3[nH]c(-c4ccc(OC)c(OC)c4)c(C(C)C)c3c2)CC1 [Example 204, 3-((2-(4-(2-(3,4-dimethoxyphenyl)-3-isopropyl-1H-indol-5-yl)piperidin-1-yl)-2-oxoethyl)(methyl)amino)-N,N-diethylpropanamide]	2000	112
CCc1c(-c2ccc(OC)c(OC)c2)[nH]c2ccc(C3CCN(C4CCN(Cc5ccn(C)n5)CC4)CC3)cc12 [Example 133, 2-(3,4-dimethoxyphenyl)-3-ethyl-5-(1′-((1-methyl-1H-pyrazol-3-yl)methyl)-[1,4′-bipiperidin]-4-yl)-1H-indole]	657	160
COc1ccc(-c2[nH]c3ccc(C4CCN(C5CCN(C(C)C)CC5)CC4)cc3c2C(C)C)cc1OC [Example 201, 2-(3,4-dimethoxyphenyl)-3-isopropyl-5-(1′-isopropyl-[1,4′-bipiperidin]-4-yl)-1H-indole]	650	17
CCc1c(-c2ccc(OC)c(OC)c2)[nH]c2ccc(C3CCN(C(=O)CN4CCCC(C(=O)N(CC)CC)C4)CC3)cc12 (centres unmarked) [Example 168, 1-(2-(4-(2-(3,4-dimethoxyphenyl)-3-ethyl-1H-indol-5-yl)piperidin-1-yl)-2-oxoethyl)-N,N-diethylpiperidine-3-carboxamide]	870	41
CCc1c(-c2ccc(OC)c(OC)c2)[nH]c2ccc(C3CCN(C(=O)C4CCCNC4)CC3)cc12 (centres unmarked) [Example 184, (4-(2-(3,4-dimethoxyphenyl)-3-ethyl-1H-indol-5-yl)piperidin-1-yl)(piperidin-3-yl)methanone]	2070	136
CCc1c(-c2ccc(OC)c(OC)c2)[nH]c2ccc(C3CCN(C4CCN(Cc5cc6ccccc6n5C)CC4)CC3)cc12 [Example 137, 2-(3,4-dimethoxyphenyl)-3-ethyl-5-(1′-((1-methyl-1H-indol-2-yl)methyl)-[1,4′-bipiperidin]-4-yl)-1H-indole]	2600	1290
COc1ccc(-c2[nH]c3ccc(C4CCN(C(=O)CNCC(C)(C)CO)CC4)cc3c2C(C)C)cc1OC [Example 219, 1-(4-(2-(3,4-dimethoxyphenyl)-3-isopropyl-1H-indol-5-yl)piperidin-1-yl)-2-((3-hydroxy-2,2-dimethylpropyl)amino)ethan-1-one]	2100	39
CCc1c(-c2ccc(OC)c(OC)c2)[nH]c2ccc(C3CCN(C(=O)CNC4CCC(N(C)C)CC4)CC3)cc12 (centres unmarked) [Example 162, 1-(4-(2-(3,4-dimethoxyphenyl)-3-ethyl-1H-indol-5-yl)piperidin-1-yl)-2-((4-(dimethylamino)cyclohexyl)amino)ethan-1-one]	402	23
CCc1c(-c2ccc(OC)c(OC)c2)[nH]c2ccc(C3CCN(C(=O)C(C)(C)OC(C)=O)CC3)cc12 [Example 175, 1-(4-(2-(3,4-dimethoxyphenyl)-3-ethyl-1H-indol-5-yl)piperidin-1-yl)-2-methyl-1-oxopropan-2-yl acetate]	14100	2060
